Test system: MV-4-11 cells
Test: Gene expression microarray analysis (Affymetrix PrimeView) and GSEA
Type: cell-based, human
Parameters: RFU PODN (11730768_x_at) / Fold change /veh PODN (11730768_x_at) / RFU LINC00158 (11744669_a_at) / Fold change /veh LINC00158 (11744669_a_at) / RFU DUSP10 (11751237_a_at) / Fold change /veh DUSP10 (11751237_a_at) / RFU ID3 (11757404_x_at) / Fold change /veh ID3 (11757404_x_at) / RFU PLEKHG5 (11737974_s_at) / Fold change /veh PLEKHG5 (11737974_s_at) / RFU LRRC4B (11730491_at) / Fold change /veh LRRC4B (11730491_at) / RFU GIMAP4 (11747438_a_at) / Fold change /veh GIMAP4 (11747438_a_at) / RFU KRT8 (11758183_x_at) / Fold change /veh KRT8 (11758183_x_at) / RFU CNN1 (11734310_a_at) / Fold change /veh CNN1 (11734310_a_at) / RFU VPS37D (11726825_at) / Fold change /veh VPS37D (11726825_at) / RFU C10orf10 (11716522_x_at) / Fold change /veh C10orf10 (11716522_x_at) / RFU KIR2DL2 /// KIR2DL4 /// KIR2DL5A /// KIR2DL5B /// KIR2DS1 /// KIR2DS2 /// KIR2DS3 /// KIR2DS4 /// KIR3DL3 /// KIR3DL3 /// KIR3DS1 (11738374_at) / Fold change /veh KIR2DL2 /// KIR2DL4 /// KIR2DL5A /// KIR2DL5B /// KIR2DS1 /// KIR2DS2 /// KIR2DS3 /// KIR2DS4 /// KIR3DL3 /// KIR3DL3 /// KIR3DS1 (11738374_at) / RFU C1QL1 (11718748_at) / Fold change /veh C1QL1 (11718748_at) / RFU TMPRSS4 (11747572_a_at) / Fold change /veh TMPRSS4 (11747572_a_at) / RFU HAMP (11756126_x_at) / Fold change /veh HAMP (11756126_x_at) / RFU RNFT2 (11725882_a_at) / Fold change /veh RNFT2 (11725882_a_at) / RFU NR4A2 (11747474_a_at) / Fold change /veh NR4A2 (11747474_a_at) / RFU ABCC12 (11746883_a_at) / Fold change /veh ABCC12 (11746883_a_at) / RFU TMEM136 (11760407_x_at) / Fold change /veh TMEM136 (11760407_x_at) / RFU CLDN22 /// WWC2 (11732394_at) / Fold change /veh CLDN22 /// WWC2 (11732394_at) / RFU HLA-DPB1 (11760878_x_at) / Fold change /veh HLA-DPB1 (11760878_x_at) / RFU SPINT1 (11716480_a_at) / Fold change /veh SPINT1 (11716480_a_at) / RFU GAP43 (11754022_s_at) / Fold change /veh GAP43 (11754022_s_at) / RFU A4GNT (11735810_at) / Fold change /veh A4GNT (11735810_at) / RFU PRB3 (11715151_x_at) / Fold change /veh PRB3 (11715151_x_at) / RFU TUBB4B (11761932_at) / Fold change /veh TUBB4B (11761932_at) / RFU CAPN14 (11732068_a_at) / Fold change /veh CAPN14 (11732068_a_at) / RFU TMCC2 (11721928_a_at) / Fold change /veh TMCC2 (11721928_a_at) / RFU IRGQ (11745062_a_at) / Fold change /veh IRGQ (11745062_a_at) / RFU FAM174B (11720279_a_at) / Fold change /veh FAM174B (11720279_a_at) / RFU TMPRSS4 (11748680_a_at) / Fold change /veh TMPRSS4 (11748680_a_at) / RFU FAM212B (11763350_a_at) / Fold change /veh FAM212B (11763350_a_at) / RFU PLEKHG5 (11743358_a_at) / Fold change /veh PLEKHG5 (11743358_a_at) / RFU ZSCAN30 (11745921_a_at) / Fold change /veh ZSCAN30 (11745921_a_at) / RFU CMKLR1 (11741424_a_at) / Fold change /veh CMKLR1 (11741424_a_at) / RFU LOC101060620 /// MAPK8IP1 (11723275_at) / Fold change /veh LOC101060620 /// MAPK8IP1 (11723275_at) / RFU SPTSSB (11747773_x_at) / Fold change /veh SPTSSB (11747773_x_at) / RFU PRSS12 (11739890_at) / Fold change /veh PRSS12 (11739890_at) / RFU BIN1 (11741810_x_at) / Fold change /veh BIN1 (11741810_x_at) / RFU WNT11 (11732464_a_at) / Fold change /veh WNT11 (11732464_a_at) / RFU C10orf10 (11716521_a_at) / Fold change /veh C10orf10 (11716521_a_at) / RFU C5orf56 (11738089_at) / Fold change /veh C5orf56 (11738089_at) / RFU CYB561 (11721691_x_at) / Fold change /veh CYB561 (11721691_x_at) / RFU ANKRD19P (11752326_a_at) / Fold change /veh ANKRD19P (11752326_a_at) / RFU OR2T12 /// OR2T33 /// OR2T8 (11738714_s_at) / Fold change /veh OR2T12 /// OR2T33 /// OR2T8 (11738714_s_at) / RFU VCAN (11748164_a_at) / Fold change /veh VCAN (11748164_a_at) / RFU JSRP1 (11732532_at) / Fold change /veh JSRP1 (11732532_at) / RFU KRTAP10-11 (11738290_x_at) / Fold change /veh KRTAP10-11 (11738290_x_at) / RFU MYO3A (11730013_a_at) / Fold change /veh MYO3A (11730013_a_at) / RFU EBF3 (11725865_a_at) / Fold change /veh EBF3 (11725865_a_at) / RFU CAMK2N1 (11719241_x_at) / Fold change /veh CAMK2N1 (11719241_x_at) / RFU C5orf56 (11738088_a_at) / Fold change /veh C5orf56 (11738088_a_at) / RFU OLFML3 (11715873_a_at) / Fold change /veh OLFML3 (11715873_a_at) / RFU LOC100653217 /// NTM (11731650_a_at) / Fold change /veh LOC100653217 /// NTM (11731650_a_at) / RFU MAPK11 (11762145_a_at) / Fold change /veh MAPK11 (11762145_a_at) / RFU FIZ1 (11724087_x_at) / Fold change /veh FIZ1 (11724087_x_at) / RFU OASL (11726364_x_at) / Fold change /veh OASL (11726364_x_at) / RFU SOX15 (11748057_x_at) / Fold change /veh SOX15 (11748057_x_at) / RFU CD79A (11719716_a_at) / Fold change /veh CD79A (11719716_a_at) / RFU HIST1H1D (11736915_at) / Fold change /veh HIST1H1D (11736915_at) / RFU CASKIN2 (11723855_a_at) / Fold change /veh CASKIN2 (11723855_a_at) / RFU LOC730098 (11760151_x_at) / Fold change /veh LOC730098 (11760151_x_at) / RFU OR4N2 (11742367_at) / Fold change /veh OR4N2 (11742367_at) / RFU PRRT2 (11749266_a_at) / Fold change /veh PRRT2 (11749266_a_at) / RFU SNX32 (11753110_a_at) / Fold change /veh SNX32 (11753110_a_at) / RFU CDHR5 (11726645_a_at) / Fold change /veh CDHR5 (11726645_a_at) / RFU RCAN1 (11760418_a_at) / Fold change /veh RCAN1 (11760418_a_at) / RFU FAM167A (11723789_a_at) / Fold change /veh FAM167A (11723789_a_at) / RFU FAM26E (11764081_at) / Fold change /veh FAM26E (11764081_at) / RFU ISYNA1 (11749810_s_at) / Fold change /veh ISYNA1 (11749810_s_at) / RFU ACY1 (11761880_at) / Fold change /veh ACY1 (11761880_at) / RFU 11764098_at / Fold change /veh 11764098_at / RFU SAMD14 (11745864_x_at) / Fold change /veh SAMD14 (11745864_x_at) / RFU NPB (11741838_a_at) / Fold change /veh NPB (11741838_a_at) / RFU TMPRSS6 (11731388_a_at) / Fold change /veh TMPRSS6 (11731388_a_at) / RFU KRTAP10-2 (11738614_at) / Fold change /veh KRTAP10-2 (11738614_at) / RFU ARHGAP8 /// PRR5-ARHGAP8 (11727945_x_at) / Fold change /veh ARHGAP8 /// PRR5-ARHGAP8 (11727945_x_at) / RFU KRTAP5-7 /// NADSYN1 (11734609_at) / Fold change /veh KRTAP5-7 /// NADSYN1 (11734609_at) / RFU RASL12 (11751679_a_at) / Fold change /veh RASL12 (11751679_a_at) / RFU CDKN2B (11736163_a_at) / Fold change /veh CDKN2B (11736163_a_at) / RFU PRF1 (11729649_at) / Fold change /veh PRF1 (11729649_at) / RFU, ZNF638 /// ZNF638-IT1 / Fold change vs veh, ZNF638 /// ZNF638-IT1 / RFU, PANK3 / Fold change vs veh, PANK3 / RFU, SH3YL1 / Fold change vs veh, SH3YL1 / RFU, ZEB2 / Fold change vs veh, ZEB2 / RFU, NRIP1 / Fold change vs veh, NRIP1 / RFU, PTTG1IP / Fold change vs veh, PTTG1IP / RFU, CAPN2 / Fold change vs veh, CAPN2 / RFU, MED14 / Fold change vs veh, MED14 / RFU, SNORA58 / Fold change vs veh, SNORA58 / RFU, C1orf63 / Fold change vs veh, C1orf63 / RFU, LRRFIP1 / Fold change vs veh, LRRFIP1 / RFU, NDUFAF7 / Fold change vs veh, NDUFAF7 / RFU, SLC12A2 / Fold change vs veh, SLC12A2 / RFU, IBTK / Fold change vs veh, IBTK / RFU, ESF1 / Fold change vs veh, ESF1 / Fold change vs veh, TMEM50B / RFU, TAOK1 / Fold change vs veh, TAOK1 / RFU, ACBD3 / Fold change vs veh, ACBD3 / RFU, TMA16 / Fold change vs veh, TMA16 / RFU, RWDD3 / Fold change vs veh, RWDD3 / RFU, BCAT1 / Fold change vs veh, BCAT1 / RFU, EDEM3 / Fold change vs veh, EDEM3 / RFU, TMEM33 / Fold change vs veh, TMEM33 / RFU, WDR75 / Fold change vs veh, WDR75 / RFU, AHCTF1 / Fold change vs veh, AHCTF1 / RFU, TFRC / Fold change vs veh, TFRC / RFU, ZDHHC17 / Fold change vs veh, ZDHHC17 / RFU, NOM1 / Fold change vs veh, NOM1 / RFU, ARL8B / Fold change vs veh, ARL8B / RFU, ZBTB11 / Fold change vs veh, ZBTB11 / RFU, TAMM41 / Fold change vs veh, TAMM41 / RFU, KIAA1704 /// LOC100996395 / Fold change vs veh, KIAA1704 /// LOC100996395 / RFU, ING1 / Fold change vs veh, ING1 / RFU, TRMT61B / Fold change vs veh, TRMT61B / RFU, FUBP3 / Fold change vs veh, FUBP3 / RFU, TP53 / Fold change vs veh, TP53 / RFU, TNKS2 / Fold change vs veh, TNKS2 / RFU, ZFP14 / Fold change vs veh, ZFP14 / RFU, ACTR2 / Fold change vs veh, ACTR2 / RFU, PPP3R1 / Fold change vs veh, PPP3R1 / RFU, PIK3R1 / Fold change vs veh, PIK3R1 / RFU, HNRNPA1 / Fold change vs veh, HNRNPA1 / RFU, RNF170 / Fold change vs veh, RNF170 / RFU, ZNF28 / Fold change vs veh, ZNF28 / RFU, RNGTT / Fold change vs veh, RNGTT / RFU, OGT / Fold change vs veh, OGT / RFU, BRD1 / Fold change vs veh, BRD1 / RFU, MARS / Fold change vs veh, MARS / RFU, ZNF655 / Fold change vs veh, ZNF655 / RFU, FAHD1 / Fold change vs veh, FAHD1 / RFU, BDP1 / Fold change vs veh, BDP1 / RFU, LRRCC1 / Fold change vs veh, LRRCC1 / RFU, ARID1A / Fold change vs veh, ARID1A / RFU, ZNF146 / Fold change vs veh, ZNF146 / RFU, ZNF330 / Fold change vs veh, ZNF330 / RFU, GPN3 / Fold change vs veh, GPN3 / RFU, C9orf123 / Fold change vs veh, C9orf123 / RFU, N4BP2L2 / Fold change vs veh, N4BP2L2 / RFU, ARFIP1 / Fold change vs veh, ARFIP1 / RFU, FAM179B / Fold change vs veh, FAM179B / RFU, BCL10 / Fold change vs veh, BCL10 / RFU, UHRF1BP1L / Fold change vs veh, UHRF1BP1L / RFU, BET1 / Fold change vs veh, BET1 / RFU, CNOT2 / Fold change vs veh, CNOT2 / RFU, ZNF268 / Fold change vs veh, ZNF268 / Fold change vs veh, ZNF507 / RFU, DGCR2 / Fold change vs veh, DGCR2 / RFU, WDSUB1 / Fold change vs veh, WDSUB1 / Fold change vs veh, HSP90B1 /// MIR3652 / RFU, ADSS / Fold change vs veh, ADSS / RFU, GK / Fold change vs veh, GK / RFU, ZNF148 / Fold change vs veh, ZNF148 / RFU, TAF9 / Fold change vs veh, TAF9 / RFU, SLC1A5 / Fold change vs veh, SLC1A5 / RFU, SLMO2 / Fold change vs veh, SLMO2 / RFU, ABCC4 / Fold change vs veh, ABCC4 / RFU, LOC101060439 /// RAP1B / Fold change vs veh, LOC101060439 /// RAP1B / RFU, RFX7 / Fold change vs veh, RFX7 / RFU, GTPBP10 / Fold change vs veh, GTPBP10 / RFU, CNEP1R1 / Fold change vs veh, CNEP1R1 / RFU, BIVM-ERCC5 /// ERCC5 / Fold change vs veh, BIVM-ERCC5 /// ERCC5 / RFU, ILF3 / Fold change vs veh, ILF3 / RFU 11762660_at / Fold change /veh 11762660_at / RFU VCAN (11757783_s_at) / Fold change /veh VCAN (11757783_s_at) / RFU DDX43 (11728927_at) / Fold change /veh DDX43 (11728927_at) / RFU KRT8 (11758188_x_at) / Fold change /veh KRT8 (11758188_x_at) / RFU NKD1 (11759106_at) / Fold change /veh NKD1 (11759106_at) / RFU SRD5A1 (11742802_a_at) / Fold change /veh SRD5A1 (11742802_a_at) / RFU TPSAB1 /// TPSB2 (11721975_s_at) / Fold change /veh TPSAB1 /// TPSB2 (11721975_s_at) / RFU GSTM3 (11746129_a_at) / Fold change /veh GSTM3 (11746129_a_at) / RFU IL23R (11737362_x_at) / Fold change /veh IL23R (11737362_x_at) / RFU TMEM51 (11727254_a_at) / Fold change /veh TMEM51 (11727254_a_at) / RFU PIWIL2 (11732686_x_at) / Fold change /veh PIWIL2 (11732686_x_at) / RFU ORM1 (11744905_x_at) / Fold change /veh ORM1 (11744905_x_at) / RFU CCDC152 (11743942_at) / Fold change /veh CCDC152 (11743942_at) / RFU ECM1 (11717891_a_at) / Fold change /veh ECM1 (11717891_a_at) / RFU IL23R (11748794_a_at) / Fold change /veh IL23R (11748794_a_at) / RFU TNFAIP8L3 (11732012_x_at) / Fold change /veh TNFAIP8L3 (11732012_x_at) / RFU MBOAT4 (11741988_at) / Fold change /veh MBOAT4 (11741988_at) / RFU 11764193_at / Fold change /veh 11764193_at / RFU TMEM53 (11763286_at) / Fold change /veh TMEM53 (11763286_at) / RFU MAGEB2 (11727129_at) / Fold change /veh MAGEB2 (11727129_at) / RFU TMEM200A (11744735_a_at) / Fold change /veh TMEM200A (11744735_a_at) / RFU CCDC152 (11751479_a_at) / Fold change /veh CCDC152 (11751479_a_at) / RFU FAM211A (11726209_a_at) / Fold change /veh FAM211A (11726209_a_at) / RFU RGS16 (11746705_a_at) / Fold change /veh RGS16 (11746705_a_at) / RFU VCAN (11755009_s_at) / Fold change /veh VCAN (11755009_s_at) / RFU RHOB (11743442_s_at) / Fold change /veh RHOB (11743442_s_at) / RFU RGS16 (11720943_a_at) / Fold change /veh RGS16 (11720943_a_at) / RFU RGS16 (11720944_at) / Fold change /veh RGS16 (11720944_at) / RFU, VPS4B / Fold change vs veh, VPS4B / RFU, CREB1 / Fold change vs veh, CREB1 / RFU, DNAJC13 / Fold change vs veh, DNAJC13 / RFU, GNAQ / Fold change vs veh, GNAQ / RFU, CDK5R1 / Fold change vs veh, CDK5R1 / RFU, ZRANB3 / Fold change vs veh, ZRANB3 / RFU, CUL4A / Fold change vs veh, CUL4A / RFU, CCNY / Fold change vs veh, CCNY / RFU, UFL1 / Fold change vs veh, UFL1 / RFU, COG3 / Fold change vs veh, COG3 / RFU, DIAPH2 / Fold change vs veh, DIAPH2 / RFU, SKA2 / Fold change vs veh, SKA2 / RFU, AFF3 / Fold change vs veh, AFF3 / RFU, LMF1 / Fold change vs veh, LMF1 / RFU, IPO11 / Fold change vs veh, IPO11 / RFU, DFFB / Fold change vs veh, DFFB / RFU, FOXP1 / Fold change vs veh, FOXP1 / RFU, CARD8 / Fold change vs veh, CARD8 / RFU, STRN3 / Fold change vs veh, STRN3 / RFU, ADK / Fold change vs veh, ADK / RFU, RASSF2 / Fold change vs veh, RASSF2 / RFU, WIPF1 / Fold change vs veh, WIPF1 / RFU, LARP1B / Fold change vs veh, LARP1B / RFU, RASA1 / Fold change vs veh, RASA1 / RFU, RB1 / Fold change vs veh, RB1 / RFU, PPFIA1 / Fold change vs veh, PPFIA1 / RFU, MAT2A / Fold change vs veh, MAT2A / RFU, CCT5 / Fold change vs veh, CCT5 / RFU, WDR92 / Fold change vs veh, WDR92 / RFU, CUX1 / Fold change vs veh, CUX1 / RFU, TTC7A / Fold change vs veh, TTC7A / RFU, TMEM135 / Fold change vs veh, TMEM135 / RFU, DEPTOR / Fold change vs veh, DEPTOR / RFU, CPM / Fold change vs veh, CPM / RFU, DNAJB6 / Fold change vs veh, DNAJB6 / RFU, CACNA2D3 / Fold change vs veh, CACNA2D3 / RFU, DTX4 / Fold change vs veh, DTX4 / RFU, TFCP2 / Fold change vs veh, TFCP2 / RFU, GMCL1 /// GMCL1P1 / Fold change vs veh, GMCL1 /// GMCL1P1 / RFU, AEBP2 / Fold change vs veh, AEBP2 / RFU, SNHG1 /// SNORD22 /// SNORD25 /// SNORD26 /// SNORD27 /// SNORD28 /// SNORD29 /// SNORD31 / Fold change vs veh, SNHG1 /// SNORD22 /// SNORD25 /// SNORD26 /// SNORD27 /// SNORD28 /// SNORD29 /// SNORD31 / Fold change (Aza/veh), C12orf56 (ProbeSet 11735607_a_at) / Fold change (ACY-1035/veh), C12orf56 (ProbeSet 11735607_a_at) / Fold change (Aza/veh), FGFR1OP (ProbeSet 11751329_s_at) / Fold change (ACY-1035/veh), FGFR1OP (ProbeSet 11751329_s_at) / Fold change (Aza/veh), VPS36 (ProbeSet 11739960_a_at) / Fold change (ACY-1035/veh), VPS36 (ProbeSet 11739960_a_at) / RFU SYPL1 (11715823_x_at) / Fold change /veh SYPL1 (11715823_x_at) / RFU IGFBP7 (11715501_s_at) / Fold change /veh IGFBP7 (11715501_s_at) / RFU REEP3 (11722064_at) / Fold change /veh REEP3 (11722064_at) / RFU IGLL1 (11728026_x_at) / Fold change /veh IGLL1 (11728026_x_at): dose or concentration left out as unconfirmed
Details: MV-4-11 cells, 48 hours

SMILES: Nc1ncn([C@@H]2O[C@H](CO)[C@@H](O)[C@H]2O)c(=O)n1 [azacitidine]
- RFU TMPRSS6 (11731388_a_at): 68.82 RFU

Reference: publication PMC5218480 (PLoS ONE, 2017)
